Data as given in ChEMBL document CHEMBL1130823, “New tetrahydronaphthalene derivatives as combined thromboxane receptor antagonists and thromboxane synthase inhibitors” (Bioorg Med Chem Lett, 1998).
pIC50: −log10 of the molar value.

Legend:
[1] = species on record: Homo sapiens; experiment: Inhibitory concentration required for the inhibition of U-46,619 induced aggregation of human platelets.; type: functional
[2] = species on record: Oryctolagus cuniculus; experiment: Inhibition of U-46,619 induced contraction of isolated rabbit saphenous vein.; type: functional; details: read-out: pA2 (converted)
[3] = molecular target: T1, Thromboxane-A synthase (Homo sapiens, UniProt P24557); experiment: Anti-synthetase activity against TXA2 synthase in human whole blood assay; type: tissue-based
T1 sequence (P24557 whole entry): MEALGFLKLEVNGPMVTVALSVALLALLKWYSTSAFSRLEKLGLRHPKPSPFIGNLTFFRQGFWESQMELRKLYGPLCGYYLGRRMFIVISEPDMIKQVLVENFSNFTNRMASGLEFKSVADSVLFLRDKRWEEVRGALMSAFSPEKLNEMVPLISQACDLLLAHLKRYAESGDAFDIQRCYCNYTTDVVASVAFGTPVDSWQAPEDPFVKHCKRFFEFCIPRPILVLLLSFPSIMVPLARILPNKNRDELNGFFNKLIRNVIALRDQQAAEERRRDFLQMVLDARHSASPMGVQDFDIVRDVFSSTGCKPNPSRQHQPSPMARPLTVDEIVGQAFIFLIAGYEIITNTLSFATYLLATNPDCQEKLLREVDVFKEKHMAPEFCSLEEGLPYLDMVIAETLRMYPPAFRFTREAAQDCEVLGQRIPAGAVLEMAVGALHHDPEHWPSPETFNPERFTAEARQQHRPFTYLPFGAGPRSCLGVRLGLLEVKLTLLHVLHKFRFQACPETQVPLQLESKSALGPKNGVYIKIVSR

SMILES | pIC50 [1] | pIC50 [3] | Kb [2]
CCCCCc1c(Cc2cccnc2)cc2c(c1CCC(=O)O)CCC(NS(=O)(=O)c1ccc(Cl)cc1)C2 (stereo not drawn) | 6.57 | 5.18 | 1.58 nM
O=C(O)CCc1c2c(cc(Cc3cccnc3)c1-c1ccccc1)CC(NS(=O)(=O)c1ccc(Cl)cc1)CC2 (stereo not drawn) | 6.74 | < 5.00 | 0.794 nM
Cc1c(Cc2cccnc2)cc2c(c1CCC(=O)O)CCC(NS(=O)(=O)c1ccc(Cl)cc1)C2 (stereo not drawn) | 6.21 | 6.07 | 158 nM
Cc1c(Cc2cccnc2)cc2c(c1/C=C/CCCC(=O)O)CCC(NS(=O)(=O)c1ccc(Cl)cc1)C2 (stereo not drawn) | 6.34 | 5.54 | 7.94 nM
O=C(O)CCc1cc(-c2cccnc2)cc2c1CCC(NS(=O)(=O)c1ccc(Cl)cc1)C2 (stereo not drawn) | 6.17 | < 5.30 | 12.6 nM
O=C(O)CCC/C=C/c1cc(Cc2cccnc2)cc2c1CCC(NS(=O)(=O)c1ccc(Cl)cc1)C2 (stereo not drawn) | 5.92 | < 5.30 | 2 nM
Cc1c(Cc2cccnc2)cc2c(c1/C=C\CCCC(=O)O)CCC(NS(=O)(=O)c1ccc(Cl)cc1)C2 (stereo not drawn) | 6.00 | 6.02 | 10 nM
O=C(O)CCC/C=C\c1c(Cc2cccnc2)ccc2c1CCC(NS(=O)(=O)c1ccc(Cl)cc1)C2 (stereo not drawn) | 6.80 | 6.46 | 0.2 nM
O=C(O)CCC/C=C/c1c(Cc2cccnc2)ccc2c1CCC(NS(=O)(=O)c1ccc(Cl)cc1)C2 (stereo not drawn) | 6.35 | 5.96 | 1.26 nM

Now those with a higher pIC50 [1], led by results:

pIC50 [1] | pIC50 [3] | SMILES | Kb [2]
7.70 | < 5.00 | O=C(O)CCc1c(Cc2cccnc2)ccc2c1CCC(NS(=O)(=O)c1ccc(Cl)cc1)C2 (stereo not drawn) | 0.316 nM
8.05 | < 5.00 | O=C(O)CC/C=C/c1cc(Cc2cccnc2)cc2c1CCC(NS(=O)(=O)c1ccc(Cl)cc1)C2 (stereo not drawn) | 0.398 nM
8.15 | 5.96 | O=C(O)CCc1cc(Cc2cccnc2)cc2c1CCC(NS(=O)(=O)c1ccc(Cl)cc1)C2 (stereo not drawn) | 0.2 nM
6.85 | < 5.00 | O=C(O)CCc1c(-c2cccnc2)ccc2c1CCC(NS(=O)(=O)c1ccc(Cl)cc1)C2 (stereo not drawn) | 0.2 nM
7.33 | 5.85 | O=C(O)CC/C=C/c1c(Cc2cccnc2)ccc2c1CCC(NS(=O)(=O)c1ccc(Cl)cc1)C2 (stereo not drawn) | 0.00794 nM
7.05 | 5.38 | O=C(O)CCC/C=C\c1cc(Cc2cccnc2)cc2c1CCC(NS(=O)(=O)c1ccc(Cl)cc1)C2 (stereo not drawn) | 2.51 nM
7.20 | 6.19 | CCCc1c(Cc2cccnc2)cc2c(c1CCC(=O)O)CCC(NS(=O)(=O)c1ccc(Cl)cc1)C2 (stereo not drawn) | 3.98 nM
